Laboratory results: patent US8697151B2, “Use of an extract from the vigna aconitifolia plant in a cosmetic and/or dermopharmaceutical composition” (BASF Beauty Care Solutions France S.A.S., priority 2001, dated 2014)

System: epidermal cell renewal
Experiment: Epidermal cell renewal in vivo by the dihydroxyacetone test (DHA test)
Set-up: species or system human
Settings: for Development of luminescence (D15-D9) / Luminescence (AU) at D 15: 12 volunteers; for Luminescence (AU) at D 15: D15, 6 days after removal of the plasters, 3 mg/cm^2 daily; for Development of luminescence (D15-D9) % referring to control area: Wilcoxon T Test not significant
Protocol: Comparative in vivo tests were conducted to determine the accelerated epidermal cell renewal activity using 5 emulsions containing 0.2% by weight or 0.5% by weight vitamin A palmitate, 3% by weight or 5% by weight VITOPTINE® (extract of Vigna aconitifolia, Lab. Sero., Pulnoy) versus placebo.
Phase A and phase B were heated to 75° C. The aqueous phase was added to the fatty phase with continuous stirring and cooled to 60° C. by continued stirring. The combined phases were then homogenized for 2 mins. with an Ultraturrax. Finally, the active component is added with stirring and the whole is cooled to room temperature.
The study was carried out as a double blind study involving 12 female volunteers aged between 18 and 55 years.
The measurement parameter was the intensity of tanning of the skin after pigmenting with dihydroxyacetone. The decreasing tanning intensity corresponds to an increase in the renewal of the stratum corneum and the rate of the epidermal cell renewal cycle.
Eight areas (two groups of four) on the inside of the lower forearm were selected: • control area untreated and unpigmented by DHA, • area treated with placebo cream, • area treated with cream containing vitamin A palmitate • area treated with cream containing VITOPTINE®.
A standardized and randomized pretreatment with 3 mg/cm^2 of a preparation was carried out daily for 7 days. After the pretreatment, on day 8, DHA in the form of a face and body tanning lotion containing 5% by weight DHA was applied to the control and treated areas by an occlusive standardized process. On day 9, the occlusive plasters were removed. This was followed for another 6 days (days 10 to 15) by the same treatment as on days 1 to 7. The color intensity of the skin was determined immediately after removal of the plasters and 6 days later by colorimetric measurements (Minolta chromameter) via luminescence.
The first calculation (D15-D9) allowed evaluation of the development between day 9 (removal of the occlusive plasters) and day 15 (6 days after removal of the occlusive plasters). This development is representative of the epidermal cell renewal cycle. The greater the value, the higher the epidermal cell renewal.

## CCCCCCCCCCCCCCCC(=O)OC/C=C(C)/C=C/C=C(C)/C=C/C1=C(C)CCCC1(C)C [vitamin A palmitate]
Cream containing 0.2%
  Development of luminescence (D15-D9): 3.53
  Luminescence (AU) at D 15: 62.18 AU
  Development of luminescence (D15-D9) % referring to control area: 32 (ns) %
Cream containing 0.5%
  Development of luminescence (D15-D9): 3.79
  Luminescence (AU) at D 15: 62.44 AU
  Development of luminescence (D15-D9) % referring to control area: 41 (ns) %
